According to patent US20150181873A1, “HERBICIDE-RESISTANT SUNFLOWER PLANTS, POLYNUCLEOTIDES ENCODING HERBICIDE=RESISTANT ACETO HYDROXY ACID SYNTHASE LARGE SUBUNIT PROTEINS, AND METHODS OF USE” (NIDERA S.A., priority 2013, published 2015):
Values joined by “and” are separate entries in the source; they are usually repeats but may differ in a detail not shown here. Identical values can stand only once.

Tests used:
[1] = system: sunflower genotypes carrying the A205V mutation event; test: Greenhouse imazapir dose response, A205V genotypes together; type: in vivo, Helianthus annuus; details: 14 DAT; for biomass accumulation, Dif with control / plant height, Dif with Control / root dry weight, Dif with control: A205V mean; for biomass accumulation, % of untreated, Mean / root dry weight, % of untreated, Mean / plant height, % of untreated, Mean: six A205V genotypes; for Phytotoxicity Index, Mean: three A205V genotypes
Protocol: (§1) A greenhouse study was conducted to quantify and contrast the imazapir sensivity of the mutants A122T and A205V in different genetic backgrounds at the whole plant level in sunflower. Seeds of the different sunflower lines that were used in this study were obtained under field conditions.
(§2) Seeds were sown in Petri dishes and, after germination, plantlets were transplanted to pots of 10 cm of diameter in a potting media consisting of equal parts of vermiculite, soil and sand. Plants were grown in a greenhouse under natural light conditions supplemented with 400 W sodium halide lamps to provide a 16 hrs daylength. Day/night temperatures were 25 and 20° C., respectively. At the V2 stage 10 plants of each genotype were randomly assigned to each treatment consisting of […] imazapir doses (0, 40, 80, 160, 240, 320, 400 and 480 g ai/ha), and a zero-time biomass determination. Experiment was arranged as a randomized block design with a full factorial (sunflower line×treatment) arrangement of treatments and 10 replications.
(§3) On the day of herbicide application ten plants of each genotype were cut at the cotyledonal node and dried at 60° C. for 48 hrs zero-time for dried weight determination. […] Height was determined as the distance between the cotyledonal node and the apex of each plant. For root biomass determination, each plant was taken from the pot and the potting media was washed out from the roots. Above ground biomass data from each line were converted to biomass accumulation after application by subtracting the appropriate average zero-time biomass from each sample. Dry biomass data were converted to percentages of the untreated control plants within each line to allow direct comparisons between groups.

[2] = system: sunflower line GM1606 (A122T); test: Greenhouse imazapir dose response, GM1606; type: in vivo, Helianthus annuus; details: 14 DAT
Protocol: as §1, §2, §3

CC(C)C1(C)N=C(c2ncccc2C(=O)O)NC1=O (centres unmarked) [Imazapyr, imazapyr]
biomass accumulation, Dif with control ([1]; 0.5x (40 g ai/ha)): 5.5%
plant height, Dif with Control ([1]; 0.5x (40 g ai/ha)): 5.6%
root dry weight, Dif with control ([1]; 0.5x (40 g ai/ha)): 12.8%
biomass accumulation, Dif with control ([1]; 1x (80 g ai/ha)): 17.8%
plant height, Dif with Control ([1]; 1x (80 g ai/ha)): 10.8%
root dry weight, Dif with control ([1]; 1x (80 g ai/ha)): 29.2%
biomass accumulation, Dif with control ([1]; 2x (160 g ai/ha)): 38.4%
plant height, Dif with Control ([1]; 2x (160 g ai/ha)): 30.8%
root dry weight, Dif with control ([1]; 2x (160 g ai/ha)): 49.4%
biomass accumulation, Dif with control ([1]; 3x (240 g ai/ha)): 52.4%
plant height, Dif with Control ([1]; 3x (240 g ai/ha)): 49.6%
root dry weight, Dif with control ([1]; 3x (240 g ai/ha)): 60.8%
biomass accumulation, Dif with control ([1]; 4x (320 g ai/ha)): 64.6%
plant height, Dif with Control ([1]; 4x (320 g ai/ha)): 66.3%
root dry weight, Dif with control ([1]; 4x (320 g ai/ha)): 68.9%
biomass accumulation, Dif with control ([1]; 5x (400 g ai/ha)): 67.6%
plant height, Dif with Control ([1]; 5x (400 g ai/ha)): 68.0%
root dry weight, Dif with control ([1]; 5x (400 g ai/ha)): 69.3%
biomass accumulation, Dif with control ([1]; 6x (480 g ai/ha)): 70.0%
root dry weight, Dif with control ([1]; 6x (480 g ai/ha)): 75.6%
plant height, Dif with Control ([1]; 6x (480 g ai/ha), listed as imazapir): 68.9% and 69.8%
biomass accumulation, % of untreated, Mean ([1]; 0.5x (40 g ai/ha)): 94.5%
root dry weight, % of untreated, Mean ([1]; 0.5x (40 g ai/ha)): 87.2%
biomass accumulation, % of untreated, Mean ([1]; 1x (80 g ai/ha)): 82.2%
root dry weight, % of untreated, Mean ([1]; 1x (80 g ai/ha)): 70.8%
biomass accumulation, % of untreated, Mean ([1]; 2x (160 g ai/ha)): 61.6%
plant height, % of untreated, Mean ([1]; 2x (160 g ai/ha)): 69.2%
root dry weight, % of untreated, Mean ([1]; 2x (160 g ai/ha)): 50.6%
biomass accumulation, % of untreated, Mean ([1]; 3x (240 g ai/ha)): 47.6%
plant height, % of untreated, Mean ([1]; 3x (240 g ai/ha)): 50.4%
root dry weight, % of untreated, Mean ([1]; 3x (240 g ai/ha)): 39.2%
biomass accumulation, % of untreated, Mean ([1]; 4x (320 g ai/ha)): 35.4%
plant height, % of untreated, Mean ([1]; 4x (320 g ai/ha)): 33.7%
root dry weight, % of untreated, Mean ([1]; 4x (320 g ai/ha)): 31.1%
biomass accumulation, % of untreated, Mean ([1]; 5x (400 g ai/ha)): 32.4%
plant height, % of untreated, Mean ([1]; 5x (400 g ai/ha)): 32.0%
root dry weight, % of untreated, Mean ([1]; 5x (400 g ai/ha)): 30.7%
biomass accumulation, % of untreated, Mean ([1]; 6x (480 g ai/ha)): 30.0%
plant height, % of untreated, Mean ([1]; 6x (480 g ai/ha)): 30.2%
root dry weight, % of untreated, Mean ([1]; 6x (480 g ai/ha)): 24.4%
Phytotoxicity Index, Mean ([1]; 0.5x (40 g ai/ha)): 0
Phytotoxicity Index, Mean ([1]; 1x (80 g ai/ha)): 0
Phytotoxicity Index, Mean ([1]; 2x (160 g ai/ha)): 2.2
Phytotoxicity Index, Mean ([1]; 3x (240 g ai/ha)): 5.1
Phytotoxicity Index, Mean ([1]; 4x (320 g ai/ha)): 7.4
Phytotoxicity Index, Mean ([1]; 5x (400 g ai/ha)): 8.2
Phytotoxicity Index, Mean ([1]; 6x (480 g ai/ha)): 8.2
biomass accumulation, % of untreated ([2]; 0.5x (40 g ai/ha)): 100.0%
plant height, % of untreated ([2]; 0.5x (40 g ai/ha)): 97.0%
root dry weight, % of untreated ([2]; 0.5x (40 g ai/ha)): 100%
biomass accumulation, % of untreated ([2]; 1x (80 g ai/ha)): 100.0%
plant height, % of untreated ([2]; 1x (80 g ai/ha)): 95.7%
root dry weight, % of untreated ([2]; 1x (80 g ai/ha)): 100.0%
biomass accumulation, % of untreated ([2]; 2x (160 g ai/ha)): 97.6%
plant height, % of untreated ([2]; 2x (160 g ai/ha)): 95.2%
root dry weight, % of untreated ([2]; 2x (160 g ai/ha)): 92.5%
biomass accumulation, % of untreated ([2]; 3x (240 g ai/ha)): 95.4%
plant height, % of untreated ([2]; 3x (240 g ai/ha)): 95.7%
root dry weight, % of untreated ([2]; 3x (240 g ai/ha)): 85.2%
biomass accumulation, % of untreated ([2]; 4x (320 g ai/ha)): 90.5%
plant height, % of untreated ([2]; 4x (320 g ai/ha)): 94.1%
root dry weight, % of untreated ([2]; 4x (320 g ai/ha)): 87.0%
biomass accumulation, % of untreated ([2]; 5x (400 g ai/ha)): 85.3%
plant height, % of untreated ([2]; 5x (400 g ai/ha)): 94.3%
root dry weight, % of untreated ([2]; 5x (400 g ai/ha)): 88.1%
biomass accumulation, % of untreated ([2]; 6x (480 g ai/ha)): 83.0%
plant height, % of untreated ([2]; 6x (480 g ai/ha)): 91.4%
root dry weight, % of untreated ([2]; 6x (480 g ai/ha)): 69.5%
